By IC50 is commonly meant the concentration needed to halve the response being measured. Lower therefore signals greater potency.

Structures are written as SMILES.

A short description of data set [1]: Metabolic stability in human liver microsomes (in vitro t1/2). The class given is in vitro ADME. The settings on record: for half-life at 2 µM: human liver microsomes 0.5 mg/mL, 2 μM compound, read-out: Human microsome t1/2, min; for Human microsome % 60 min: human liver microsomes. Here is the method: (§1) The following are assays that may be used to evaluate the metabolic stability of compounds of Formula (I) in human, rat, or mouse microsomes. The assays follow a common procedure recited below. 1. […] Two separated experiments were performed as follows. a) With NADPH: 10 μL of 20 mg/mL liver microsomes and 40 μL of 10 mM NADPH were added to the incubations. […] The final concentration of microsomes was 0.5 mg/mL. 3. The reaction was started with the addition of 4 μL of 200 μM control compound or test compound solutions. Verapamil was used as positive control in this study. The final concentration of test compound or control compound was 2 μM. 4. Aliquots of 50 μL were taken from the reaction solution at 0, 15, 30, 45 and 60 min. […] Samples were centrifuged at 3,220 g for 40 minutes. A 90 μL aliquot of the supernatant was mixed with 90 μL of ultra-pure H2O and then used for LC-MS/MS analysis. 5. Data analysis. All calculations were carried out using Microsoft Excel. Peak areas were determined from extracted ion chromatograms. The slope value, k, was determined by linear regression of the natural logarithm of the remaining percentage of the parent drug vs. incubation time curve. The in vitro half-life (in vitro t1/2) was determined from the slope value: in vitro t1/2=−(0.693)/k.
For orientation: Liver microsomes are a subcellular fraction often used to study metabolism.

Data set [2] is described as follows: Metabolic stability in mouse liver microsomes (in vitro t1/2). The settings on record: for half-life at 2 µM: mouse liver microsomes 0.5 mg/mL, 2 μM compound, read-out: Mouse microsome t1/2, min; for Mouse microsome % 60 min: mouse liver microsomes. The class given is in vitro ADME. Here is the method:
as §1

In data set [3] the target is MCT1 (Homo sapiens (Human), UniProt P53985). The experiment in a line: Assay 4: MCT1-mediated lactate transport in BT20 breast cancer cells. The class given is cell-based. The settings on record: Table 27. In a few lines: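 BT20 cells loaded with BCECF-AM (30 mM DMSO stock) for 5 min at 37° C, washed and resuspended in Tyrode's Solution pH 7.4. Lactate uptake tracked via BCECF intracellular pH signal after adding 10 mM L-lactate.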

The target of data set [4] is MCT4 (Homo sapiens (Human), UniProt O15427). The experiment in a line: Assay 3: MCT4-mediated lactate transport in MDA-MB-231 breast cancer cells. The class given is cell-based. As to conditions: MDA-MB-231 cells; lactate transport. An outline of the steps: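 MDA-MB-231 cells loaded with BCECF-AM, 5 min at 37° C, washed and resuspended in Tyrode's Solution, pH 7.4. MCT4 lactate/proton symport followed as the intracellular pH change reported by BCECF fluorescence.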
Chain of MCT4 (O15427 whole entry, looked up): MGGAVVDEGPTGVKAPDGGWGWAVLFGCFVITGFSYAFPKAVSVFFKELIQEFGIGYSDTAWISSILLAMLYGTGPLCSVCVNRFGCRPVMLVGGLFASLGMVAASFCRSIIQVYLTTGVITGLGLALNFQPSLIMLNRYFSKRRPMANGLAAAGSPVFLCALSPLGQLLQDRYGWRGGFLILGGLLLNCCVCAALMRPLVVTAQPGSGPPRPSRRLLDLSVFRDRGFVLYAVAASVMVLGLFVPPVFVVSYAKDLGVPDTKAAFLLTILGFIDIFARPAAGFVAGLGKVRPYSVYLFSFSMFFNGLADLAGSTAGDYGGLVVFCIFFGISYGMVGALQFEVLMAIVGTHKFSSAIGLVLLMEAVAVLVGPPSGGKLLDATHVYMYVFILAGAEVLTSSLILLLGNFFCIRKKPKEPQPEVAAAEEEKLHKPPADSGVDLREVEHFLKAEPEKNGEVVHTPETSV
Chain of MCT4 (P35613 whole entry partner, looked up): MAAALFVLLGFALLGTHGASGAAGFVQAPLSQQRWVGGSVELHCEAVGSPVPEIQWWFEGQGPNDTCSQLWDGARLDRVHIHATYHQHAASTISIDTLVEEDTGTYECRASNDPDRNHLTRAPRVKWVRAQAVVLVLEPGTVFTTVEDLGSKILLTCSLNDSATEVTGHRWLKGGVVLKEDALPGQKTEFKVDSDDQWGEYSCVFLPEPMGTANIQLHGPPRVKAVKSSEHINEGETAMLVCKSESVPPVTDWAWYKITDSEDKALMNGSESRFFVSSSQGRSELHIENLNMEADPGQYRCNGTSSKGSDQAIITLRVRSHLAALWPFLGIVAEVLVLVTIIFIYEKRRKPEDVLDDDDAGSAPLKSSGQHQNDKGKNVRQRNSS

Chain of MCT1 (P53985 whole entry): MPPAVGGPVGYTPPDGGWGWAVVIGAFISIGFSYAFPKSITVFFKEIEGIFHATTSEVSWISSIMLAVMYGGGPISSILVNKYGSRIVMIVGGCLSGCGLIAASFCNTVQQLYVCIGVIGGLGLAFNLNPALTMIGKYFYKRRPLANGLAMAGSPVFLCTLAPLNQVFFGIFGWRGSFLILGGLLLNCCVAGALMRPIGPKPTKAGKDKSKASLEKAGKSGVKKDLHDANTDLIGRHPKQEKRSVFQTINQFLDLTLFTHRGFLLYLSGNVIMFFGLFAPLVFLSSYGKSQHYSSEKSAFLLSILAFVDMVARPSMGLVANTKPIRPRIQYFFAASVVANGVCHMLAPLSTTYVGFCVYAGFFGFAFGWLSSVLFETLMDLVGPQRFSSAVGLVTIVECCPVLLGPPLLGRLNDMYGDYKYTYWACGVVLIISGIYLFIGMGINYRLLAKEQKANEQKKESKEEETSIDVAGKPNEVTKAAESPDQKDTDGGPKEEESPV
Chain of MCT1 (P35613 140-385 partner): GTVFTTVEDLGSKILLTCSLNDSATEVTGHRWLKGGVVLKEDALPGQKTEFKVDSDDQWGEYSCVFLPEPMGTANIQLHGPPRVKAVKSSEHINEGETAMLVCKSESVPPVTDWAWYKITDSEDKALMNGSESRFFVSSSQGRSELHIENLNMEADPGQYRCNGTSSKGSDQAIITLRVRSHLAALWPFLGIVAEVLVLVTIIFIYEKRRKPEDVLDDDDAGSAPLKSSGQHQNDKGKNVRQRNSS

As for `CC(C)COc1cccc(-c2cc(COC(C)(C)C(=O)O)nn2Cc2ccccc2Cl)c1` [Example 27, 2-([1-[(2-Chlorophenyl)methyl]-5-(3-(2-methyl-propoxy)phenyl)1H-pyrazol-3-yl]methoxy)-2-methylpropanoic acid], in data set [1], the half-life at 2 µM came to 0.833 h and the “Human microsome % 60 min” value worked out at 43%. Besides, in data set [2], the half-life at 2 µM turned out to be 1.02 h and the “Mouse microsome % 60 min” value is recorded as 50%.
On the same counts, the results for `CC(C)Oc1cccc(-c2cc(COC(C)(C)C(=O)O)nn2Cc2ccccc2Cl)c1` [Example 35, 2-([1-[(2-Chlorophenyl)methyl]-5-(3-isopropoxyphenyl)1H-pyrazol-3-yl]methoxy)-2-methylpropanoic acid] are 1.92 h, 67%, 0.583 h and 31%.
On the same counts, the results for `COc1cccc(-c2cc(COC(C)(C)C(=O)O)nn2Cc2ccccc2OC)c1` [Example 36, 2-([5-(3-Methoxyphenyl)-1-[(2-methoxyphenyl)methyl]1H-pyrazol-3-yl]methoxy)-2-methylpropanoic acid] are 4.83 h, 85%, 20 h and 99%.
In the same order, the values of `COc1cccc(-c2cc(COC(C)(C)C(=O)O)nn2Cc2ccccc2N(C)C)c1` [Example 38, 2-([1-[(2-(Dimethylamino)phenyl]methyl]-5-(3-methoxyphenyl)1H-pyrazol-3-yl]methoxy)-2-methylpropanoic acid] are 1.27 h, 56%, 1.32 h and 61%.
As for `CC(C)(OCc1cc(-c2cccc(OC3CC3)c2)n(Cc2ccccc2Cl)n1)C(=O)O` [Example 39, 2-([1-[(2-Chlorophenyl)methyl]-5-[3-(cyclopropoxy)phenyl]1H-pyrazol-3-yl]methoxy)-2-methylpropanoic acid], in data set [1], the half-life at 2 µM was found to be 6.33 h and the “Human microsome % 60 min” value turned out to be 89%. Moreover, in data set [2], the half-life at 2 µM was found to be 6.17 h and the “Mouse microsome % 60 min” value worked out at 88%.
`COc1cccc(-c2c(C)c(COC(C)(C)C(=O)O)nn2Cc2ccccc2Cl)c1` [Example 54, 2-({1-[(2-Chlorophenyl)methyl]-5-(3-methoxyphenyl)-4-methyl-1H-pyrazol-3-yl)methoxy)-2-methylpropionic acid]: in data set [1], the half-life at 2 µM came out at 1.3 h and the “Human microsome % 60 min” value stood at 59%. Also, in data set [2], the half-life at 2 µM stood at 12.7 h and the “Mouse microsome % 60 min” value is 95%.
On the same counts, the results for `COc1cccc(-c2cc(COC(C)(C)C(=O)O)nn2-c2ccccc2Cl)c1` [Example 57, 2-([1-(2-chlorophenyl)-5-(3-methoxy-phenyl)-1H-pyrazol-3-yl]methoxy)-2-methylpropanoic acid] are 3.17 h, 80%, above 33.3 h and 100%.
As to `COc1ccc(-c2cc(COC(C)(C)C(=O)O)nn2Cc2ccccc2Cl)s1` [Example 64], in data set [1], the half-life at 2 µM was 3.33 h and the “Human microsome % 60 min” value is on record as 82%. Further, in data set [2], the half-life at 2 µM amounted to 4.5 h and the “Mouse microsome % 60 min” value amounted to 84%.
In the same order, the values of `COc1csc(-c2cc(COC(C)(C)C(=O)O)nn2Cc2ccccc2Cl)c1` [Example 65, 2-([1-[(2-Chlorophenyl)methyl)-5-(4-methoxythien-2-yl)-1H-pyrazol-3-yl]methoxy)-2-methylpropanoic acid] are 2.33 h, 78%, 9.33 h and 92%.
On the same counts, the results for `COc1cc(-c2cc(COC(C)(C)C(=O)O)nn2Cc2ccccc2Cl)cs1` [Example 66, 2-([1-[(2-chlorophenyl)methyl]-5-(5-methoxythien-3-yl)-1H-pyrazol-3-yl]-methoxy)-2-methylpropanoic acid] are 2 h, 73%, 4.33 h and 83%.
On the same counts, the results for `CCC(C)(OCc1cc(-c2cccc(OC)c2)n(Cc2ccccc2Cl)n1)C(=O)O` (stereo not drawn) [Example 68, 2-([1-[(2-Chlorophenyl)methyl]-5-(3-methoxyphenyl)-1H-pyrazol-3-yl)methoxy)-2-methylbutanoic acid] are 13.2 h, 95%, 6.33 h and 91%.
On to `COc1cc(OC)cc(-c2cc(COC(C)(C)C(=O)O)nn2-c2cccc3cnn(C)c23)c1` [Example 249, 2-([5-(3,5-Dimethoxyphenyl)-1-(1-methyl-1H-indazol-7-yl)-1H-pyrazol-3-yl]methoxy)-2-methylpropanoic acid], for which the IC50 in data set [3] was above 100000 nM; in data set [4], 39 nM.
On the same counts, the results for `CCOc1cccc(F)c1Cn1nc(COC(C)(C)C(=O)O)cc1-c1cc(OC)cc(OC)c1` [Example 252, 2-([5-(3,5-Dimethoxyphenyl)-1-[(2-ethoxy-6-fluorophenyl)methyl]-1H-pyrazol-3-yl]methoxy)-2-methylpropanoic acid] are 43000 nM and 25 nM.
On the same counts, the results for `CC(C)(C)COc1cccc(-c2cc(COC(C)(C)C(=O)O)nn2-c2cccc3cccnc23)c1` [Example 253, 2-([5-[3-(2,2-Dimethylpropoxy)phenyl]-1-(quinolin-8-yl)-1H-pyrazol-3-yl]methoxy)-2-methylpropanoic acid] are 55000 nM and 19 nM.
On the same counts, the results for `COc1cc(OC)cc(-c2cc(COC(C)(C)C(=O)O)nn2Cc2ccccn2)c1` [Example 254, 2-([5-(3,5-Dimethoxyphenyl)-1-([pyridin-2-yl]methyl)-1H-pyrazol-3-yl]methoxy)-2-methylpropanoic acid] are above 100000 nM and 285 nM.
On to `Cn1ncc2cccc(Cn3nc(COC(C)(C)C(=O)O)cc3-c3cccc(OCC(C)(C)C)c3)c21` [Example 256, 2-([5-[3-(2,2-Dimethylpropoxy)phenyl]-1-[(1-methyl-1H-indazol-7-yl)methyl]-1H-pyrazol-3-yl]methoxy)-2-methylpropanoic acid], for which the IC50 in data set [3] was 17000 nM; in data set [4] it was 2.6 nM.
In the same order, the values of `Cn1nnc2cccc(-n3nc(COC(C)(C)C(=O)O)cc3-c3cccc(OCC(C)(C)C)c3)c21` [Example 258, 2-([5-[3-(2,2-Dimethylpropoxy)phenyl]-1-(1-methyl-1H-1,2,3-benzotriazol-7-yl)-1H-pyrazol-3-yl)methoxy)-2-methylpropanoic acid] are 27000 nM and 12 nM.
On the same counts, the results for `CCn1ncc2ccc(-c3cc(COC(C)(C)C(=O)O)nn3Cc3ccccn3)cc21` [Example 259, 2-([5-(1-Ethyl-1H-indazol-6-yl)-1-([pyridin-2-yl]methyl)-1H-pyrazol-3-yl]methoxy)-2-methylpropanoic acid] are above 100000 nM and 850 nM.
With `CCn1nnc2ccc(-c3cc(COC(C)(C)C(=O)O)nn3Cc3ccccc3Cl)cc21` [Example 261], the values for the IC50 in data set [3] and in data set [4] were 43000 nM and 17 nM, respectively.
In the same order, the values of `CC[C@@](C)(OCc1cc(-c2cccc(OC3CC3)c2)n(-c2ccccc2Cl)n1)C(=O)O` [Example 262, (2R)-2-([1-(2-Chlorophenyl)-5-(3-cyclopropoxyphenyl)-1H-pyrazol-3-yl]methoxy)-2-methylbutanoic acid] are 7900 nM and 9.1 nM.
In the same order, the values of `CC[C@@](C)(OCc1cc(-c2cccc(OCC(C)C)c2)n(-c2cccc3cnn(C)c23)n1)C(=O)O` [Example 263, (2R)-2-Methyl-2-([1-(1-methyl-1H-indazol-7-yl)-5-[3-(2-methylpropoxy)phenyl]-1H-pyrazol-3-yl]methoxy]butanoic acid] are 16000 nM and 2.2 nM.
In the same order, the values of `Cc1nn(C)c2sc(-c3cc(COC(C)(C)C(=O)O)nn3Cc3ccccc3Cl)cc12` [Example 265, 2-([1-[(2-Chlorophenyl)methyl]-5-[1,3-dimethyl-1H-thieno[2,3-c]pyrazol-5-yl]-1H-pyrazol-3-yl)methoxy)-2-methylpropanoic acid] are 84000 nM and 5.6 nM.

Values taken from patent US10214492B2, “Heterocyclic inhibitors of MCT4” (Vettore, LLC, priority 2016, dated 2019).
